Assay results as given in the supplement of paper PMC10307832.

Experiments:
Assay in all cases: relative viability (nuclei count vs DMSO), 5 days (fraction); higher = more cells survive
SGI-1776 + Vorinostat = compound: CN1CCC(CNc2ccc3ncc(-c4cccc(OC(F)(F)F)c4)n3n2)CC1 [SGI-1776] + O=C(CCCCCCC(=O)Nc1ccccc1)NO [Vorinostat] (partner 1 µM)
Outline: (§1)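 Lung cancer cell lines were pin-tool dosed in 1536-well plates on the day after seeding, with either a lone drug or a fixed anchor-drug dose plus five library-drug doses (not always all listed) in √10 steps. Nuclei were counted on 4× images after 5 days. Relative viability is the ratio of treated-well to vehicle-well nuclei counts, with each value a median of duplicate plates.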

SGI-1776 + Alpelisib = compound: CN1CCC(CNc2ccc3ncc(-c4cccc(OC(F)(F)F)c4)n3n2)CC1 [SGI-1776] + Cc1nc(NC(=O)N2CCC[C@H]2C(N)=O)sc1-c1ccnc(C(C)(C)C(F)(F)F)c1 [Alpelisib] (partner 2 µM)
Outline: as §1

Entinostat + Dasatinib = compound: Nc1ccccc1NC(=O)c1ccc(CNC(=O)OCc2cccnc2)cc1 [Entinostat] + Cc1nc(Nc2ncc(C(=O)Nc3c(C)cccc3Cl)s2)cc(N2CCN(CCO)CC2)n1 [Dasatinib] (partner 0.075 µM)
Outline: as §1

Entinostat + Tozasertib = compound: Nc1ccccc1NC(=O)c1ccc(CNC(=O)OCc2cccnc2)cc1 [Entinostat] + Cc1cc(Nc2cc(N3CCN(C)CC3)nc(Sc3ccc(NC(=O)C4CC4)cc3)n2)n[nH]1 [Tozasertib] (partner 0.1 µM)
Outline: as §1

Row | Cell Line | relative viability (SGI-1776 + Vorinostat; first compound 0.08 µM) | relative viability (SGI-1776 + Vorinostat; first compound 0.8 µM) | relative viability (SGI-1776 + Vorinostat; first compound 2.53 µM) | relative viability (SGI-1776 + Vorinostat; first compound 8 µM) | relative viability (SGI-1776 + Alpelisib; first compound 0.08 µM) | relative viability (SGI-1776 + Alpelisib; first compound 0.8 µM) | relative viability (SGI-1776 + Alpelisib; first compound 2.53 µM) | relative viability (SGI-1776 + Alpelisib; first compound 8 µM) | relative viability (Entinostat + Dasatinib; first compound 0.02 µM) | relative viability (Entinostat + Dasatinib; first compound 0.06325 µM) | relative viability (Entinostat + Dasatinib; first compound 0.2 µM) | relative viability (Entinostat + Dasatinib; first compound 0.6325 µM) | relative viability (Entinostat + Dasatinib; first compound 2 µM) | relative viability (Entinostat + Tozasertib; first compound 0.02 µM) | relative viability (Entinostat + Tozasertib; first compound 0.06325 µM) | relative viability (Entinostat + Tozasertib; first compound 0.2 µM) | relative viability (Entinostat + Tozasertib; first compound 0.6325 µM) | relative viability (Entinostat + Tozasertib; first compound 2 µM)
1 | BEN | 0.643 | 0.618 | 0.584 | 0.543 | 0.957 | 1.01 | 0.896 | 0.699 | 0.318 | 0.341 | 0.308 | 0.264 | 0.179 | 0.476 | 0.478 | 0.443 | 0.356 | 0.401
2 | SK-MES-1 | 1.23 | 1.04 | 1.11 | 0.734 | 0.896 | 0.897 | 1.01 | 0.647 | 0.403 | 0.498 | 0.541 | 0.338 | 0.175 | 0.849 | 0.826 | 0.925 | 0.673 | 0.324
3 | NCI-H2085 | 0.841 | 0.865 | 0.763 | 0.753 | 1.01 | 0.96 | 0.978 | 0.844 | 0.226 | 0.243 | 0.228 | 0.248 | 0.244 | 0.788 | 0.618 | 0.612 | 0.431 | 0.365
4 | LCLC-103H | 0.839 | 0.862 | 0.832 | 0.652 | 0.996 | 0.862 | 0.939 | 0.924 | 0.478 | 0.458 | 0.48 | 0.362 | 0.224 | 0.495 | 0.35 | 0.366 | 0.308 | 0.214
5 | 201T | 0.977 | 1.01 | 0.98 | 0.946 | 1.02 | 1.03 | 1.08 | 0.999 | 0.651 | 0.559 | 0.58 | 0.421 | 0.313 | 0.898 | 0.811 | 0.589 | 0.501 | 0.385
6 | NCI-H2023 | 0.795 | 0.8 | 0.713 | 0.463 | 0.595 | 0.546 | 0.546 | 0.414 | 0.55 | 0.439 | 0.326 | 0.135 | 0.0809 | 0.218 | 0.221 | 0.138 | 0.0768 | 0.0712
7 | NCI-H1395 | 0.887 | 0.755 | 0.558 | 0.47 | 1.09 | 1.02 | 0.996 | 0.631 | 0.477 | 0.425 | 0.42 | 0.286 | 0.405 | 0.668 | 0.721 | 0.696 | 0.496 | 0.47
8 | NCI-H23 | 0.639 | 0.758 | 0.602 | 0.533 | 0.722 | 0.725 | 0.616 | 0.57 | 0.781 | 0.971 | 0.961 | 0.741 | 0.378 | 0.364 | 0.264 | 0.292 | 0.193 | 0.121
9 | LXF-289 | 0.693 | 0.827 | 0.79 | 0.682 | 1 | 1.06 | 1.03 | 1 | 0.209 | 0.261 | 0.177 | 0.178 | 0.185 | 0.203 | 0.172 | 0.204 | 0.17 | 0.145
10 | EKVX | 0.854 | 0.778 | 0.717 | 0.829 | 0.885 | 0.933 | 0.869 | 0.72 | 0.656 | 0.51 | 0.492 | 0.435 | 0.343 | 0.384 | 0.414 | 0.323 | 0.234 | 0.192
